Assays:
mouse hepatitis model = experiment: Improvement effect on hepatitis, concanavalin A (ConA) mouse hepatitis model; type: in vivo, Blab/c mice; details: gavage 50 mg/kg, n = 10
Protocol: In this example, the improvement effect of compounds 1 19 prepared in example 1 on […] measured. (1) Animals: Adult and Healthy Male Blab/c Mice, 25 30 g. […] The blank control group was injected with equal volume of isotonic saline. After modeling, indomethacin and compounds 1 19 were given by gavage every day at the dose of 50 mg/kg. The blank control group and the model control group were given equal volume of isotonic saline. Eyeball blood and liver tissue were taken at 6 h, 12 h, 24 h and 48 h after administration. The levels of serum alanine aminotransferase (ALT) and aspartate aminotransferase (AST) were measured.

arthritis model = experiment: Improvement effect on arthritis, sodium iodoacetate knee joint model in SD rats; type: in vivo; set-up: Pathological tissue score (joint): scale not given here; details: gavage every day 100 mg/kg/d; 4th week after operation; n = 10
Protocol: In this example, the improvement effect of compounds 1˜19 prepared in example 1 on arthritic was measured. (1) Animals: SD rats, four rates in one cage, were fed under the conditions of constant temperature (25±2° C.) and illumination control (12 h day/night circulation). The animals were fed with standard feed, and fed for at least 7 days to adapt environment before the experiment. […] (3) SD rats were fasted for 12 hours before operation, and weighed and recorded prior to operation. The blank control group was not treated any more. […] After anesthesia, they were fixed in the supine position. 0.1 ml of 1 g/L sodium iodoacetate solution was injected into the knee joint. From the fifth day, the animals were driven to run for 30 minutes every day, and they were allowed to move freely in the cage the rest of the time. After modeling, indomethacin and compounds 1˜19 were given by gavage every day at the dose of 100 mg/kg/d. The blank control group and the model control group were given equal volume of isotonic saline. At the 4th week after operation, the articular fluid of rats in each group was extracted to measure the content of MMP-13. The rats were killed, and the subchondral bone plate of the inner condyle of the tibia of the right knee was cut and processed into specimens, and pathological scores were made.

[1] = test system: sodium taurocholate-induced pancreatitis model; experiment: Improvement effect on pancreatitis, sodium taurocholate-induced model in mice; type: in vivo, Blab/c mice; set-up: Pancreatic histopathological injury score: scale not given here; details: 17.5 mg/kg caudal vein 1 h, 3 h and 6 h after model construction; after 24 hours; n = 10
From the text: In this example, the improvement effect of compounds 1 19 prepared in example 1 on […] measured. (1) Animals: Adult and Healthy Male Blab/c Mice, 25 30 g. […] A model was made with sodium taurocholate. […] After anesthesia, the surgical site was sterilized with an alcohol cotton ball. The sterile gauze was placed on the surgical site. A laparotomy was made at the width of two fingers under the xiphoid process. After seeing the liver, an incision was made, the cotton swab soaked in normal saline was stretched into the enterocoelia, the duodenum was sought on the back of the liver, turned out and placed on the sterile gauze, the pancreaticobiliary duct and duodenal papilla were sought, and the needle of 1 mL syringe was used to pierce a hole on the along the direction of the nipple, a 24 G indwelling needle tube was inserted into the pancreatic duct along the nipple, and the common bile duct below the liver was closed with an arterial vascular clip, with a dose of 0.1 mL/100 g and 0.1 mL/min inject sodium taurocholate with a concentration of 3.8% at a flow rate. During this process, pay attention to adding saline to the exposed pancreas and duodenum to keep it moist. After the injection, the tube was slowly taken out and the bile duct was continued to be closed. The main tube was removed from the vascular artery clip 3 minutes later, the duodenum was also accommodated, and the abdominal cavity was sutured in double layers. The blank control group was injected with equal volume of isotonic saline. […] The blank control group and the model control group were given equal volume of isotonic saline. After 24 hours, pancreatic tissue and blood samples were taken, and the pancreatic histopathological injury score and the level of pancreatic amylase in serum were evaluated.

Structure (SMILES) | Aspartate aminotransferase (AST) (mouse hepatitis model; 6 h after administration) | Serum alanine aminotransferase (ALT) (mouse hepatitis model; 6 h after administration) | Aspartate aminotransferase (AST) (mouse hepatitis model; 12 h after administration) | Serum alanine aminotransferase (ALT) (mouse hepatitis model; 12 h after administration) | Serum alanine aminotransferase (ALT) (mouse hepatitis model; 24 h after administration) | Aspartate aminotransferase (AST) (mouse hepatitis model; 48 h after administration) | Serum alanine aminotransferase (ALT) (mouse hepatitis model; 48 h after administration) | MMP-13 content in joint fluid (arthritis model) | Pathological tissue score (joint) (arthritis model) | Amylopsin (pancreatic amylase level in serum) [1] | Pancreatic histopathological injury score [1] | Aspartate aminotransferase (AST) (mouse hepatitis model; 24 h after administration)
Cn1c(=O)c2c(ncn2C)n(C)c1=O [Caffeine, caffeine, reference compound] | 260 ± 31 U/L | 590 ± 54 U/L | 860 ± 91 U/L | 1456 ± 132 U/L | 2632 ± 321 U/L | 943 ± 91 U/L | 1432 ± 152 U/L | 59 ± 8 mg/L | 2.6 ± 0.4 | 16 ± 2 KU/L | 2.6 ± 0.4 | –
CCCC(=O)CCn1c(=O)c2c(ncn2C)n(C)c1=O [Compound 18, 1-(2-butyrylethyl)-3,7-dimethylxanthine] | 54 ± 7 U/L | 67 ± 8 U/L | 98 ± 8 U/L | 106 ± 11 U/L | 157 ± 15 U/L | 117 ± 9 U/L | 121 ± 13 U/L | 91 ± 8 mg/L | 0.5 ± 0.3 | 9 ± 2 KU/L | 1.3 ± 0.4 | 131 ± 8 U/L
CCNCCn1c(=O)c2c(ncn2C)n(C)c1=O [Compound 12, 1-(2-ethylaminoethyl)-3,7-dimethylxanthine] | 58 ± 7 U/L | 76 ± 8 U/L | 93 ± 9 U/L | 113 ± 12 U/L | 162 ± 16 U/L | 102 ± 9 U/L | 121 ± 13 U/L | 83 ± 8 mg/L | 0.3 ± 0.4 | 4 ± 2 KU/L | 0.4 ± 0.5 | 121 ± 19 U/L
CCn1c(=O)c2ncn(C)c2n(C)c1=O [Compound 3, 1-ethyl-3,9-dimethylxanthine] | 59 ± 7 U/L | 67 ± 8 U/L | 96 ± 8 U/L | 102 ± 8 U/L | 152 ± 14 U/L | 103 ± 9 U/L | 113 ± 12 U/L | 97 ± 4 mg/L | 0.6 ± 0.3 | 3 ± 2 KU/L | 0.5 ± 0.2 | 114 ± 11 U/L
CC(C)NCCn1c(=O)c2c(ncn2C)n(C)c1=O [Compound 13, 1-(2-isopropylaminoethyl)-3,7-dimethylxanthine] | 63 ± 7 U/L | 87 ± 9 U/L | 102 ± 12 U/L | 121 ± 13 U/L | 172 ± 17 U/L | 93 ± 9 U/L | 143 ± 12 U/L | 98 ± 5 mg/L | 0.3 ± 0.5 | 6 ± 2 KU/L | 1.8 ± 0.2 | 132 ± 13 U/L
CC(=O)OCCn1c(=O)c2c(ncn2C)n(C)c1=O [Compound 8, 1-(acetic acid-2-ethyl)-3,7-dimethylxanthine] | 68 ± 7 U/L | 67 ± 8 U/L | 95 ± 8 U/L | 110 ± 13 U/L | 172 ± 16 U/L | 98 ± 9 U/L | 132 ± 13 U/L | 92 ± 8 mg/L | 0.4 ± 0.5 | 5 ± 2 KU/L | 0.8 ± 0.4 | 122 ± 12 U/L
CCn1cnc2c1c(=O)n(C)c(=O)n2C [Compound 4, 1,3-dimethyl-7-ethylxanthine] | 65 ± 7 U/L | 79 ± 8 U/L | 91 ± 8 U/L | 118 ± 9 U/L | 142 ± 12 U/L | 96 ± 9 U/L | 105 ± 13 U/L | 102 ± 8 mg/L | 0.6 ± 0.4 | 11 ± 2 KU/L | 1.4 ± 0.4 | 103 ± 9 U/L
CCn1c(=O)c2c(ncn2CC)n(C)c1=O [Compound 5, 1,7-diethyl-3-methylxanthine] | 71 ± 7 U/L | 73 ± 8 U/L | 93 ± 8 U/L | 109 ± 8 U/L | 136 ± 12 U/L | 91 ± 9 U/L | 105 ± 12 U/L | 99 ± 5 mg/L | 0.7 ± 0.3 | 3 ± 1 KU/L | 0.4 ± 0.2 | 101 ± 8 U/L

From US20260083743A1, “NUCLEOSIDE DERIVATIVE FOR PREVENTING AND TREATING INFLAMMATION AND APPLICATION THEREOF” (WEST CHINA HOSPITAL OF SICHUAN UNIVERSITY, priority 2019, published 2026)
